From ChEMBL document CHEMBL1201862, “PubChem BioAssay data set” (2004) come the findings set out here.

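All cell lines were grown in 96-well plates and treated with compound for 48 hours. Here, GI50 denotes the concentration required for 50% inhibition of growth.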 The source made the active and inactive calls. Cut-off read from the data, not from the text of the source: active = GI50 up to about 1.1 µM and inactive = higher.

Test systems include SNB-75; SF-539; OVCAR-3; Hs-578T; HOP-62; RXF 393; UACC-257; PC-3; K562; HOP-92; KM12; IGROV-1; SF-268; MDA-MB-231; SK-MEL-5; CAKI-1; HCT-15; SF-295; UACC-62.
What all share (assay): NCI-60 cell line screen, 48 h

For the compound `CC1=C(C(=O)Nc2ccccc2)C(c2ccc(C)o2)C(C#N)=C(SCc2ccccc2)N1` (configuration not stated), the GI50 is > 100 µM (inactive) with SNB-75; > 100 µM (inactive) in the experiment on SF-539; 51.9 µM (inactive) in the experiment on OVCAR-3; > 87.3 µM (inactive) with Hs-578T; > 100 µM (inactive) in the experiment on HOP-62; > 37.6 µM (inactive) in the experiment with RXF 393. Moreover, the GI50 is > 100 µM (inactive) in the experiment with UACC-257; > 55.8 µM (inactive) in the experiment with PC-3; 14.4 µM (inactive) in the experiment on K562; 5.25 µM (inactive) in the experiment on HOP-92; 10.9 µM (inactive) in the experiment on KM12; 52.6 µM (inactive) with IGROV-1. Further, the GI50 was > 100 µM (inactive) in the experiment with SF-268; > 100 µM (inactive) with MDA-MB-231; 34.5 µM (inactive) in the experiment on SK-MEL-5; > 100 µM (inactive) in the experiment on CAKI-1; 12.7 µM with HCT-15; 96.2 µM (inactive) in the experiment with SF-295. Besides, in the experiment on UACC-62, the GI50 is 18.9 µM (inactive).

Regarding `CC(=O)NC1C(OCc2ccccc2)OC(CO)C(O)C1OC(C)C(=O)NC(C(=O)NC(CCC(=O)Nc1ccc2c(c1)CN1C(=O)c3ccccc3C1=N2)C(N)=O)C(C)C` (configuration not stated), the GI50 in the experiment with SNB-75, with SF-539, in the experiment on OVCAR-3, in the experiment on Hs-578T, in the experiment with HOP-62 and in the experiment with RXF 393 was > 100 µM (inactive) throughout. In addition, the GI50 in the experiment on UACC-257, in the experiment with PC-3, with K562, with HOP-92, in the experiment with KM12 and with IGROV-1 was > 100 µM (inactive) each time. The GI50 is > 100 µM (inactive) in the experiment with SF-268; > 100 µM (inactive) in the experiment with MDA-MB-231; > 100 µM (inactive) in the experiment on SK-MEL-5; > 100 µM (inactive) in the experiment on CAKI-1; over 100 µM with HCT-15; > 100 µM (inactive) with SF-295. Also, the GI50 with UACC-62 was > 100 µM (inactive).

Consider `O=C1C(Cl)=C(Nc2ccc(S(=O)(=O)Nc3ccccn3)cc2)C(=O)c2ccccc21`, for which the GI50 was 7.91 µM (inactive) in the experiment on SNB-75; 4.54 µM (inactive) with SF-539; 4.65 µM (inactive) in the experiment on OVCAR-3; 13.1 µM (inactive) in the experiment on Hs-578T; 13 µM (inactive) with HOP-62; 7.35 µM (inactive) in the experiment with RXF 393. Also, the GI50 in the experiment with UACC-257 was 5 µM (inactive); with PC-3 it was 12.8 µM (inactive); in the experiment on K562, 2.23 µM (inactive); in the experiment on HOP-92 it was 5.7 µM (inactive); with KM12, 13.1 µM (inactive); in the experiment on IGROV-1 it was 5.93 µM (inactive). The GI50 was 8.2 µM (inactive) in the experiment with SF-268; 6.89 µM (inactive) in the experiment on MDA-MB-231; 4.4 µM (inactive) with SK-MEL-5; 16.8 µM (inactive) with CAKI-1; 4.36 µM in the experiment with HCT-15; 15.3 µM (inactive) in the experiment on SF-295. In the experiment with UACC-62, the GI50 was 5.6 µM (inactive).

Consider `Fc1ccc2nc3n(c2c1)C(c1c(F)cccc1F)SC3` (configuration not stated), for which the GI50 in the experiment on SNB-75 is 31.6 µM (inactive); in the experiment with SF-539 it was > 100 µM (inactive); with OVCAR-3, 54.8 µM (inactive); in the experiment on Hs-578T it was > 100 µM (inactive); in the experiment on HOP-62, > 100 µM (inactive); in the experiment with RXF 393, 53.7 µM (inactive). In addition, the GI50 in the experiment on UACC-257 is 47.8 µM (inactive); with PC-3 it was 40.7 µM (inactive); in the experiment on HOP-92 it was 46 µM (inactive); with KM12, 39.4 µM (inactive); in the experiment with IGROV-1, > 100 µM (inactive); with SF-268, > 100 µM (inactive). Moreover, the GI50 in the experiment on MDA-MB-231 is 72.6 µM (inactive); in the experiment with SK-MEL-5 it was 26.7 µM (inactive); in the experiment with CAKI-1, 35.2 µM (inactive); with HCT-15 it was 51.8 µM; in the experiment on SF-295, 46 µM (inactive); in the experiment with UACC-62, 82.4 µM (inactive).

On to `Cc1cc(=O)nc(S(=O)(=O)NC(=O)Nc2cccc(Cl)c2)[nH]1`, for which the GI50 in the experiment with SNB-75 was 49.4 µM (inactive); in the experiment on SF-539 it was > 100 µM (inactive); with OVCAR-3, 47.1 µM (inactive); in the experiment on Hs-578T, > 100 µM (inactive); in the experiment on HOP-62, > 100 µM (inactive); in the experiment on RXF 393 it was > 71.4 µM (inactive). In addition, the GI50 is > 100 µM (inactive) with UACC-257; > 30.5 µM (inactive) in the experiment with PC-3; > 100 µM (inactive) with K562; 6.93 µM (inactive) in the experiment on HOP-92; 14.7 µM (inactive) in the experiment with KM12; > 100 µM (inactive) in the experiment on IGROV-1. In addition, the GI50 is > 100 µM (inactive) in the experiment with SF-268; > 68.9 µM (inactive) in the experiment with MDA-MB-231; > 100 µM (inactive) in the experiment with SK-MEL-5; over 100 µM with HCT-15; 16.2 µM (inactive) in the experiment with SF-295; > 100 µM (inactive) in the experiment on UACC-62.

With `COc1ccc(P2(=S)SP(=S)(c3ccc(Cl)cc3)S2)cc1` (configuration not stated), the GI50 in the experiment with SNB-75, with SF-539, in the experiment on OVCAR-3, in the experiment on Hs-578T, with HOP-62 and in the experiment with RXF 393 was > 100 µM (inactive) throughout. Moreover, the GI50 with UACC-257, with PC-3, in the experiment with HOP-92, with KM12, in the experiment with IGROV-1 and with SF-268 was > 100 µM (inactive) each time. Also, the GI50 in the experiment on MDA-MB-231 is > 100 µM (inactive); with SK-MEL-5 it was > 100 µM (inactive); in the experiment with CAKI-1 it was > 100 µM (inactive); in the experiment with HCT-15, over 100 µM; in the experiment with SF-295, > 100 µM (inactive); in the experiment with UACC-62 it was > 100 µM (inactive).

For the compound `Cc1cc(C)c2cc(N)c(Cl)nc2n1`, the GI50 with SNB-75, in the experiment on SF-539, in the experiment with Hs-578T, in the experiment with RXF 393, in the experiment on UACC-257 and with PC-3 was > 100 µM (inactive) throughout. The GI50 in the experiment on HOP-92, in the experiment with KM12, in the experiment with IGROV-1, in the experiment with SF-268, in the experiment on MDA-MB-231 and in the experiment with SK-MEL-5 was > 100 µM (inactive) in each case. Besides, the GI50 was > 100 µM (inactive) in the experiment on CAKI-1, 60.5 µM in the experiment with HCT-15, > 100 µM (inactive) with SF-295 and > 100 µM (inactive) with UACC-62.

On to `Cc1cn2c(/C=N/NC(=N)N)c(-c3ccc([N+](=O)[O-])cc3)nc2s1`, for which the GI50 was 0.509 µM (active) in the experiment with SNB-75; 1.68 µM (inactive) in the experiment with SF-539; 1.65 µM (inactive) with OVCAR-3; 0.935 µM (active) in the experiment with Hs-578T; 1.29 µM (inactive) in the experiment with HOP-62; 0.914 µM (active) in the experiment on RXF 393. Further, the GI50 was 1.18 µM (inactive) with UACC-257; 1.4 µM (inactive) in the experiment with PC-3; 0.641 µM (active) in the experiment on HOP-92; 0.401 µM (active) in the experiment on KM12; 1.64 µM (inactive) with SF-268; 0.385 µM (active) in the experiment with MDA-MB-231. For the same compound, the GI50 in the experiment on SK-MEL-5 was 1.36 µM (inactive); with CAKI-1, 2.61 µM (inactive); in the experiment on HCT-15, 1.46 µM; with SF-295, 1.46 µM (inactive); with UACC-62, 1.72 µM (inactive).

For the compound `CCOC(=O)Nc1ccc(S(=O)(=O)Nn2cnnc2)cc1`, the GI50 with SF-539 is 22.4 µM (inactive); with OVCAR-3, 27.9 µM (inactive); in the experiment on Hs-578T, 57.9 µM (inactive); in the experiment with HOP-62, 51.6 µM (inactive); with RXF 393, > 100 µM (inactive); in the experiment with UACC-257 it was > 100 µM (inactive). Moreover, the GI50 is 57.4 µM (inactive) in the experiment on PC-3; 27.2 µM (inactive) in the experiment on K562; 63.7 µM (inactive) with HOP-92; 36.2 µM (inactive) in the experiment on KM12; 40.7 µM (inactive) in the experiment with IGROV-1; 83.2 µM (inactive) in the experiment on SF-268. Also, the GI50 in the experiment with MDA-MB-231 was 76.6 µM (inactive); in the experiment on SK-MEL-5, 23.9 µM (inactive); in the experiment on CAKI-1, 47.1 µM (inactive); with HCT-15, 50.1 µM; with SF-295, 31.5 µM (inactive); in the experiment on UACC-62, 33.8 µM (inactive).

For `C#CCNC(CSSCC(N)C(=O)O)C(=O)O` (configuration not stated), the GI50 in the experiment on SNB-75, with SF-539, in the experiment with OVCAR-3, in the experiment with Hs-578T, in the experiment on HOP-62 and in the experiment on RXF 393 was > 100 µM (inactive) each time. Besides, the GI50 with UACC-257 was > 100 µM (inactive); with PC-3, > 100 µM (inactive); in the experiment on HOP-92, 4.73 µM (inactive); in the experiment on KM12, > 100 µM (inactive); with IGROV-1, > 100 µM (inactive); with SF-268 it was > 100 µM (inactive). Besides, the GI50 with MDA-MB-231 is > 100 µM (inactive); in the experiment on SK-MEL-5, > 100 µM (inactive); with CAKI-1, > 100 µM (inactive); with HCT-15, over 100 µM; in the experiment on SF-295, > 100 µM (inactive); in the experiment with UACC-62 it was > 100 µM (inactive).

As for `CCCCCCCCCCCCCCCCOP(=O)(O)OCC(NC(C)=O)C(=O)O` (configuration not stated), the GI50 is 20 µM (inactive) in the experiment on SNB-75; 32.4 µM (inactive) in the experiment on SF-539; 98.2 µM (inactive) in the experiment with OVCAR-3; 27.9 µM (inactive) in the experiment with Hs-578T; 19.2 µM (inactive) in the experiment on HOP-62; 21.7 µM (inactive) in the experiment with RXF 393. For the same compound, the GI50 in the experiment on UACC-257 was 54.1 µM (inactive); with PC-3, 18 µM (inactive); in the experiment with K562, > 100 µM (inactive); in the experiment with HOP-92, 55.3 µM (inactive); in the experiment with IGROV-1, 24.3 µM (inactive); with SF-268 it was 31 µM (inactive). The GI50 in the experiment on MDA-MB-231 was 22.9 µM (inactive); with SK-MEL-5 it was > 100 µM (inactive); with CAKI-1, 57 µM (inactive); in the experiment with HCT-15, 18.2 µM; with SF-295, 20.4 µM (inactive).
